In US9999222B2, “Herbicidal combination comprising azines” (BASF SE, priority 2014, dated 2018):
Several values for one entry are separate records, joined by “and”; a condition that tells them apart may be missing. Equal values may be shown once. Read-outs that look alike come from different tables or passages of the source.

Tests used:
Assay in all cases: Greenhouse test, pre-emergence treatment
ALOMY = assay type: in vivo, Alopecurus myosuroides; conditions: pre-emergence
Method in brief: (§1)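 Seeds were sown in loamy sand with approximately 3.0% humus, then sprayed at once with actives suspended or emulsified in water. Pots were watered, hooded until rooting, held at 10-25° C. or 20-35° C. by species for 2 to 4 weeks, and scored 0 (no damage) to 100 (no emergence/complete destruction).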

ECHCG = assay type: in vivo, Echinocloa crus-galli; conditions: Echinochloa crus-galli, 480 h, read-out: observed % activity 20 DAT
Method in brief: as §1

POLCO = assay type: in vivo, Polygonum convolvulus; conditions: pre-emergence
Method in brief: as §1

SETFA = assay type: in vivo, Setaria faberi
Method in brief: as §1

AVEFA = assay type: in vivo, Avena fatua; conditions: pre-emergence
Method in brief: as §1

BRADC = assay type: in vivo, Brachiaria decumbens; conditions: Urochloa decumbens, pre-emergence, 480 h
Method in brief: as §1

COMBE = assay type: in vivo, Commelina benghalensis; conditions: Commelina benghalensis, 480 h, pre-emergence, read-out: observed % activity 20 DAT
Method in brief: as §1

EPHHL = assay type: in vivo, Euphorbia heterophylla; conditions: Euphorbia heterophylla, pre-emergence, 480 h, pre-emergence, 1000 g ai/ha; read-out: observed % activity 20 DAT
Method in brief: as §1

GALAP = assay type: in vivo, Galium aparine; conditions: Galium aparine, pre-emergence, 480 h, 500 g ai/ha, 20 DAT; read-out: observed % activity
Method in brief: as §1

GERPU = assay type: in vivo, Geranium pusillum; conditions: Geranium pusillum, pre-emergence, 480 h, pre-emergence, read-out: observed % activity 20 DAT
Method in brief: as §1

KCHSC = assay type: in vivo, Kochia scoparia; conditions: Bassia scoparia, 480 h, pre-emergence, read-out: observed % activity 20 DAT
Method in brief: as §1

LOLMU = assay type: in vivo, Lolium multiflorum; conditions: Lolium multiflorum, pre-emergence, 480 h, pre-emergence, read-out: observed % activity 20 DAT
Method in brief: as §1

PHACA = assay type: in vivo, Phalaris canariensis; conditions: Phalaris canariensis, pre-emergence, 480 h, pre-emergence, read-out: observed % activity 20 DAT
Method in brief: as §1

IPOHE = assay type: in vivo, Ipomoea hederacea; conditions: Ipomoea hederacea, 480 h, read-out: observed % activity 20 DAT
Method in brief: as §1

SORHA = assay type: in vivo, Sorghum halepense; conditions: Sorghum halepense, pre-emergence, 480 h, 20 DAT, read-out: observed % activity
CENCY = assay type: in vivo, Centaurea cyanus

CCC(CC)Nc1c([N+](=O)[O-])cc(C)c(C)c1[N+](=O)[O-] [Pendimethalin, pendimethalin]
inhibition at 250 g/ha (ALOMY; Alopecurus myosuroides, 480 h, 250 g ai/ha, 20 DAT, read-out: observed % activity): 60% | inhibition at 500 g/ha (ALOMY; Alopecurus myosuroides, 480 h, 500 g ai/ha, 20 DAT, read-out: observed % activity): 85% | pest or weed control at 250 g/ha (ALOMY; Alopecurus myosuroides, 480 h, 250 g ai/ha, read-out: observed % activity 20 DAT): 45% | pest or weed control at 500 g/ha (ALOMY; Alopecurus myosuroides, 480 h, 500 g ai/ha, read-out: observed % activity 20 DAT): 65% | pest or weed control at 1000 g/ha (ALOMY; Alopecurus myosuroides, 480 h, 1000 g ai/ha, read-out: observed % activity 20 DAT): 80% | inhibition at 125 g/ha (ALOMY; Alopecurus myosuroides, 480 h, use rate 125 g ai/ha, read-out: observed % activity 20 DAT): 55% | pest or weed control at 250 g/ha (ALOMY; Alopecurus myosuroides, 480 h, use rate 250 g ai/ha, 20 DAT, read-out: observed % activity 20 DAT): 15% | pest or weed control at 1000 g/ha (ALOMY; Alopecurus myosuroides, 480 h, use rate 1000 g ai/ha, 20 DAT, read-out: observed % activity 20 DAT): 95% | inhibition at 1000 g/ha (ALOMY; Alopecurus myosuroides, 480 h, use rate 1000 g ai/ha, read-out: observed % activity 20 DAT): 95% | observed % activity 20 DAT (ALOMY; use rate 500 g ai/ha): 65% and 90% | observed % activity 20 DAT (ALOMY; use rate 1000 g ai/ha): 75% | inhibition at 125 g/ha (ECHCG; use rate 125 g ai/ha): 95% | pest or weed control at 250 g/ha (ECHCG; use rate 250 g ai/ha, 20 DAT): 98% | inhibition at 250 g/ha (ECHCG; use rate 250 g ai/ha): 98% | pest or weed control at 500 g/ha (POLCO; Fallopia convolvulus, 480 h, use rate 500 g ai/ha, 20 DAT, read-out: observed % activity 20 DAT): 60% | inhibition at 250 g/ha (POLCO; Fallopia convolvulus, 480 h, 250 g ai/ha, 20 DAT, read-out: observed % activity): 50% | inhibition at 500 g/ha (POLCO; Fallopia convolvulus, 480 h, 500 g ai/ha, 20 DAT, read-out: observed % activity): 60% | inhibition at 125 g/ha (POLCO; Fallopia convolvulus, 480 h, use rate 125 g ai/ha, read-out: observed % activity 20 DAT): 0% | inhibition at 500 g/ha (POLCO; Fallopia convolvulus, 480 h, use rate 500 g ai/ha, read-out: observed % activity 20 DAT): 60% | observed % activity 20 DAT (POLCO; use rate 500 g ai/ha): 45% | inhibition at 125 g/ha (SETFA; Setaria faberi, 480 h, use rate 125 g ai/ha, read-out: observed % activity 20 DAT): 98% | inhibition at 500 g/ha (SETFA; Setaria faberi, 480 h, use rate 500 g ai/ha, read-out: observed % activity 20 DAT): 98% | observed % activity 20 DAT (SETFA; use rate 500 g ai/ha, 20 DAT): 98% | inhibition at 500 g/ha (AVEFA; Avena fatua, 480 h, 500 g ai/ha, 20 DAT, read-out: observed % activity): 0% | observed % activity 20 DAT (AVEFA; 250 g ai/ha): 0% | inhibition at 500 g/ha (BRADC; 500 g ai/ha, 20 DAT, read-out: observed % activity): 75% | pest or weed control at 250 g/ha (BRADC; 250 g ai/ha, read-out: observed % activity 20 DAT): 35% | pest or weed control at 500 g/ha (BRADC; 500 g ai/ha, read-out: observed % activity 20 DAT): 55% | pest or weed control at 500 g/ha (COMBE; 500 g ai/ha): 10% | pest or weed control at 1000 g/ha (COMBE; 1000 g ai/ha): 40% | pest or weed control at 1000 g/ha (EPHHL): 55% | inhibition at 500 g/ha (GALAP): 30% | pest or weed control at 125 g/ha (GERPU; use rate 125 g ai/ha, 20 DAT): 90% | inhibition at 125 g/ha (GERPU; use rate 125 g ai/ha): 70% | inhibition at 250 g/ha (GERPU; use rate 250 g ai/ha): 90% | pest or weed control at 500 g/ha (GERPU; use rate 500 g ai/ha, 20 DAT): 70% | pest or weed control at 500 g/ha (KCHSC; use rate 500 g ai/ha, 20 DAT): 80% | inhibition at 125 g/ha (KCHSC; use rate 125 g ai/ha): 60% | inhibition at 125 g/ha (LOLMU; use rate 125 g ai/ha): 0% | inhibition at 250 g/ha (LOLMU; use rate 250 g ai/ha): 0% | pest or weed control at 1000 g/ha (LOLMU; use rate 1000 g ai/ha, 20 DAT): 55% | inhibition at 1000 g/ha (LOLMU; use rate 1000 g ai/ha): 55% | pest or weed control at 250 g/ha (PHACA; 250 g ai/ha): 0% | pest or weed control at 500 g/ha (PHACA; 500 g ai/ha): 45% | inhibition at 125 g/ha (PHACA; use rate 125 g ai/ha): 35% | pest or weed control at 250 g/ha (PHACA; use rate 250 g ai/ha, 20 DAT): 55% | inhibition at 250 g/ha (PHACA; use rate 250 g ai/ha): 55% | inhibition at 500 g/ha (PHACA; use rate 500 g ai/ha): 65% | pest or weed control at 500 g/ha (IPOHE; 500 g ai/ha): 0% | pest or weed control at 1000 g/ha (IPOHE; 1000 g ai/ha): 0% | inhibition at 250 g/ha (SORHA; 250 g ai/ha): 75% | inhibition at 500 g/ha (SORHA; 500 g ai/ha): 85% | observed % activity 20 DAT (CENCY; 500 g ai/ha): 25% | observed % activity 20 DAT (CENCY; 1000 g ai/ha): 0%
